The source made the active and inactive calls.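 How the source made its calls: active means target enzyme inhibited at least 50% at a set dose, and selective over every off-target enzyme by a set factor; inactive means weaker inhibition or too little selectivity.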
What was measured:
[1] = pPAFAH inhibition and serine hydrolase selectivity, SAR follow-up, selectivity assay for pPAFAH inhibitor project, biochemical, gel-based, FP-Rh fluorescence, complex proteome, SAR compounds (AID 588774); conditions: gel-based competitive ABPP, at 10 µM;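 on inhibition: 0% = DMSO-only band intensity and 100% = blank gel background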
LYPLA1 = experiment: as above; conditions: gel-based competitive ABPP, stronger effect = higher value
MW 32 kDa = experiment: as above; conditions: gel-based competitive ABPP, at 1 µM, stronger effect = higher value
ABHD3 = experiment: as above; conditions: gel-based competitive ABPP, stronger effect = higher value
[2] = biological target: Platelet-activating factor acetylhydrolase (Mus musculus) (UniProt Q60963); experiment: as above; conditions: gel-based competitive ABPP, pPAFAH, stronger effect = higher value
Platelet-activating factor acetylhydrolase (Mus musculus), sequence (Q60963 whole entry, looked up): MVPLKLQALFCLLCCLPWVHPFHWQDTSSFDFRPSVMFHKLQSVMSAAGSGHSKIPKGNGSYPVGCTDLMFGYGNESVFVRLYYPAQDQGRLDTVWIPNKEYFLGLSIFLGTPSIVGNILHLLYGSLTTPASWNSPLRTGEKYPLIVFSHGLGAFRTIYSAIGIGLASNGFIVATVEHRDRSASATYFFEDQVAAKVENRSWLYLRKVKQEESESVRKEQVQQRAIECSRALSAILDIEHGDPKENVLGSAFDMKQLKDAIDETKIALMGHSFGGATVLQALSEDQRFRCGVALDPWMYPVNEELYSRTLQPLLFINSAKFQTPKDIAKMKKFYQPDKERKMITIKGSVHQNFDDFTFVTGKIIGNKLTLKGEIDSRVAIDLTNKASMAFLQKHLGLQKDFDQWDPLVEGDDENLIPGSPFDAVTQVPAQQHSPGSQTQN

LYPLA2 = experiment: as above; conditions: gel-based competitive ABPP, stronger effect = higher value
ABHD4 = ABHD4 (UniProt Q8VD66); experiment: as above; conditions: gel-based competitive ABPP, stronger effect = higher value
ABHD4, sequence (Q8VD66 whole entry, looked up): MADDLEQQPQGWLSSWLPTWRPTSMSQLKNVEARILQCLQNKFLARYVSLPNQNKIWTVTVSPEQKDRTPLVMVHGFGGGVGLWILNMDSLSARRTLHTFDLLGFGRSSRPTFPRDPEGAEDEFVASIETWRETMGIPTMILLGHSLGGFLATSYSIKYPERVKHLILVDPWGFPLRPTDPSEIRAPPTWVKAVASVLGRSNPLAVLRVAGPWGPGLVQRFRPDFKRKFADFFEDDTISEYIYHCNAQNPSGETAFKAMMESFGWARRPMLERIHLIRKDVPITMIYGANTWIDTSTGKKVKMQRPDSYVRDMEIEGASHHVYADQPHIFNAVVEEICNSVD

pPAFAH = experiment: as above; conditions: gel-based competitive ABPP, anti-targets inhibited, at 10 µM
ABHD6 = experiment: as above; conditions: gel-based competitive ABPP, stronger effect = higher value
MW 30 kDa = experiment: as above; conditions: gel-based competitive ABPP, stronger effect = higher value
FAAH = experiment: as above; conditions: gel-based competitive ABPP, stronger effect = higher value
[3] = biological target: Monoglyceride lipase (Mus musculus) (UniProt O35678); experiment: as above; conditions: gel-based competitive ABPP, MAGL, stronger effect = higher value
Monoglyceride lipase (Mus musculus), sequence (O35678 whole entry, looked up): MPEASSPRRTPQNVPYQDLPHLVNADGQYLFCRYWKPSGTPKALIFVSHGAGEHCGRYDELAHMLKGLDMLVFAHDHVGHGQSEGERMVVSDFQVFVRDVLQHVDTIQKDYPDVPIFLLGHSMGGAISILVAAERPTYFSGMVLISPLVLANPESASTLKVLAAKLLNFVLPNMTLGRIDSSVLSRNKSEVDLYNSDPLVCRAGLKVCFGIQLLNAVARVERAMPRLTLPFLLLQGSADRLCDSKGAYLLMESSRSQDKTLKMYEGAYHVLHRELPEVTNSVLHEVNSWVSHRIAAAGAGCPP

SMILES	anti-target count ([1]; ABHD3, anti-targets inhibited)	anti-target count ([1]; ABHD4, anti-targets inhibited)	anti-target count ([1]; ABHD6, anti-targets inhibited)	anti-target count ([1]; FAAH, anti-targets inhibited)	anti-target count ([1]; LYPLA1, anti-targets inhibited)	anti-target count ([1]; LYPLA2, anti-targets inhibited)	anti-target count ([1]; MAGL, anti-targets inhibited)	inhibition (LYPLA1; at 10 µM)	inhibition (ABHD3; at 10 µM)	inhibition ([2]; at 10 µM)	inhibition ([2]; inhibition, at 0.1 µM)	inhibition ([2]; inhibition, at 1 µM)	inhibition (LYPLA2; at 10 µM)	inhibition (ABHD4; at 10 µM)	anti-target count (pPAFAH)	inhibition (ABHD6; at 10 µM)	inhibition (ABHD6; inhibition, at 0.1 µM)	inhibition (ABHD6; inhibition, at 1 µM)	inhibition (MW 30 kDa; at 1 µM)	inhibition (FAAH; at 10 µM)	further results
Cc1cc(N2CCN(C(=O)n3ncc(-c4ccc(Cl)c(Cl)c4)n3)CC2)c2ccccc2n1	8	8	8	8	8	8	8	84% (inactive)	100%	100%	97%	98%	61% (inactive)	100%	8	61% (inactive)	13%	43%	36%	88% (inactive)	inhibition (LYPLA1; inhibition, at 1 µM): 24%; inhibition (MW 32 kDa): 12%; inhibition (ABHD3; inhibition, at 0.1 µM): 69%; inhibition (ABHD3; inhibition, at 1 µM): 96%; inhibition (LYPLA2; inhibition, at 1 µM): 18%; inhibition (ABHD4; inhibition, at 0.1 µM): 69%; inhibition (ABHD4; inhibition, at 1 µM): 96%; inhibition (FAAH; inhibition, at 0.1 µM): 29%; inhibition (FAAH; inhibition, at 1 µM): 74%; inhibition ([3]; at 10 µM): 40% (inactive); inhibition ([3]; inhibition, at 1 µM): 26%
Cc1cc(N2CCN(C(=O)n3ncc(-c4ccc(OC(F)(F)F)cc4)n3)CC2)c2ccccc2n1	9	9	9	9	9	9	9	100% (inactive)	100%	100%	100%	100%	96% (inactive)	100%	9	74% (inactive)	22%	60%	44%	92% (inactive)	inhibition (LYPLA1; inhibition, at 1 µM): 51%; inhibition (MW 32 kDa): 43%; inhibition (ABHD3; inhibition, at 0.1 µM): 75%; inhibition (ABHD3; inhibition, at 1 µM): 92%; inhibition (LYPLA2; inhibition, at 1 µM): 39%; inhibition (ABHD4; inhibition, at 0.1 µM): 75%; inhibition (ABHD4; inhibition, at 1 µM): 92%; inhibition (FAAH; inhibition, at 0.1 µM): 38%; inhibition (FAAH; inhibition, at 1 µM): 91%; inhibition ([3]; at 10 µM): 53% (inactive); inhibition ([3]; inhibition, at 1 µM): 35%
O=C(Oc1noc2cc(Cl)ccc12)N1CCOCC1	3	3	3	3	3	3	3	0% (inactive)	0% (inactive)	100%	96%	97%	0% (inactive)	0% (inactive)	3	66% (inactive)	27%	46%	39%	100%	inhibition (MW 30 kDa; at 0.1 µM): 24%; inhibition (FAAH; inhibition, at 0.1 µM): 85%; inhibition (FAAH; inhibition, at 1 µM): 94%; inhibition ([3]; at 10 µM): 26% (inactive)

From PubChem BioAssay AID588774 (The Scripps Research Institute Molecular Screening Center, 2011)
